# Literature values as cited in patent US20070281009A1, “N-Acetylglucosamine Tablet Disintegrating In Oral Cavity And Process For Producing The Same” (Yaizu Suisankagaku Industry Co., Ltd., priority 2004, published 2007).
# Experiments:
# arthropathy = details: human, 500 mg/day or 1,000 mg/day dissolved in milk
# skin beauty = details: human, oral, 1,000 mg/day
# [1] = tested on: synthesis of hyaluronic acid
SMILES,Effect of ameliorating arthropathy (arthropathy),Effect on enhancing skin beauty (skin beauty),Ability to promote synthesis of hyaluronic acid [1]
CC(=O)N[C@H]1C(O)O[C@H](CO)[C@@H](O)[C@@H]1O (stereo partly drawn) [N-acetylglucosamine],confirmed to provide an effect of ameliorating arthropathy,effective,–
CC1=C(/C=C/C(C)=C/C=C/C(C)=C/C=C/C=C(C)/C=C/C=C(C)/C=C/C2=C(C)CCCC2(C)C)C(C)(C)CCC1 [β-carotene],–,–,known to have an ability to promote synthesis of hyaluronic acid
